Data on 28 compounds can be found in US4443459A, “α-Tocopheryl ester of 5-substituted picolinic acid and hypotensive composition containing it” (Banyu Pharmaceutical Co., Ltd., priority 1981, dated 1984).

The subject of series [1] is Spontaneous hypertensive rats. Put plainly: Hypotensive action in spontaneous hypertensive rats, oral (tail artery pressure, plethysmography; Table 1). In kind it is in vivo, rat (spontaneous hypertensive, male). From the text:
(§1) dl-α-tocopheryl 5-butylpicolinate and dl-α-tocopherol were used after they were each dissolved in a suitable amount of ethyl ether, mixed with a solution containing 2% of Tween 80 and 2% of Span 40 and after removing ethyl ether, uniformly emulsified. 5-Butylpicolinic acid was used as a solution in 2% Tween 80+2% Span.
(§2) Spontaneous hypertensive rats (male, body weight 350 to 370 g) and Wistar rats with a normal blood pressure level (female, body weight 250 to270 g), three per group, were used. Without anesthesia, the pressure of the tail artery was measured by plethysmography.

A short description of series [2]: in vivo. To be noted: mouse, mice. How it is done: (§3) ddY-Strain female mice (body weight about 20 g), five per group, were used and each of the test compounds was orally or intraperitoneally administered, and two days after the administration, the number of dead mice was counted. From it, the acute toxicity LD50 of each of the compounds was determined by the Behrens-Kraerber method.

The subject of series [3] is ddY-Strain female mice. Put plainly: in vivo. To be noted: mouse, 4000 mg/kg. How it is done:
as §3

Series [4] has as its system Normotensive Wistar rats. Put plainly: Hypotensive action in normotensive Wistar rats, oral (tail artery pressure, plethysmography; Table 2). The series is classed as in vivo, rat (Wistar, female).
Description: as §1, §2

Series [5] can be described thus: Acute toxicity LD50, intraperitoneal (Table 5). The conditions noted are these: mouse, in vivo, ip. From the text:
(§4) The following Tables 4 and 5 summarize the maximum blood pressure lowering rates and the acute toxicity values (LD50 values) of other typical examples of the compound of formula (I).
In Table 5, each compound was intraperitoneally administered to mice.

Series [6] relates to Spontaneous hypertensive rats. Put plainly: Maximum blood pressure lowering rate, oral (Table 4). To be noted: Rattus norvegicus, 0.01 mmol/kg oral. In kind it is in vivo.
Description: as §4
In Table 4, 0.01 mmol/kg of each compound was orally administered to spontareous hypertensive rats.

The target in series [7] is T1, dopamine β-hydroxylase (Bos taurus, UniProt P15101).
T1 sequence (P15101 1-610): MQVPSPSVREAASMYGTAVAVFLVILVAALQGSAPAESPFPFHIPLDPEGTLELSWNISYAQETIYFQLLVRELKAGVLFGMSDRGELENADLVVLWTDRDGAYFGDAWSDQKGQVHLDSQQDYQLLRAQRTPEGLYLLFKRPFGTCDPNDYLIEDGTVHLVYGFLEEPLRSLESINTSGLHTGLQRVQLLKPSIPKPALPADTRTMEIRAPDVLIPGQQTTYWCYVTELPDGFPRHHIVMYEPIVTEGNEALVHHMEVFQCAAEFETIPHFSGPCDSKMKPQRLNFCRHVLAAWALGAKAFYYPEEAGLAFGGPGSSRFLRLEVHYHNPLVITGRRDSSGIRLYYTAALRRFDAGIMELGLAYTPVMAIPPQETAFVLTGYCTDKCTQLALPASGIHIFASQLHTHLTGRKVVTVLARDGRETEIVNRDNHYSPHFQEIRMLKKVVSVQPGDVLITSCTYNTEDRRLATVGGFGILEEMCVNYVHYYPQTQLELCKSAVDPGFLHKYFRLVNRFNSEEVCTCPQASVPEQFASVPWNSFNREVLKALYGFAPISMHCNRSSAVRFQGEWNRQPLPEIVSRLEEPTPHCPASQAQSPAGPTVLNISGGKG
Put plainly: 50% dopamine β-hydroxylase inhibitory concentration. The series is classed as biochemical.

Where [8] appears, read: 9.375 mg/kg oral, spontaneous hypertensive rats.
Setting [9] is: 37.5 mg/kg oral, spontaneous hypertensive rats.
Setting [10] is: read-out: LD50 of the compound of the invention.
Setting [11] is: ester of formula (I), read-out: Maximum blood pressure lowering rate (%) of the compound of the invention.
[12] abbreviates: read-out: LD50 of the 5-substituted picolinic acid.
The mark [13] stands for this setting: corresponding acid, read-out: Maximum blood pressure lowering rate (%) of the 5-substituted picolinic acid.
Where [14] appears, read: intraperitoneal, mice, corresponding acid, read-out: LD50 of the 5-substituted picolinic acid.

Like-named read-outs stand apart in the source and are kept apart here.

`CCCCc1ccc(C(=O)Oc2c(C)c(C)c3c(c2C)CCC(C)(CCCC(C)CCCC(C)CCCC(C)C)O3)nc1` (racemic) [Example 1, dl-α-tocopheryl 5-butylpicolinate]: the “Blood pressure lowering rate, 1h” value is given as 20.3% in series [1] (setting [8]); 29.0% in series [1] (setting [9]); 2.4% in series [4] (150 mg/kg oral, 1h, normotensive Wistar rats). Besides, the “Blood pressure lowering rate, 2h” value in series [1] (setting [8]) is 3.2%; in series [1] (setting [9]) it was 18.3%; in series [4] (150 mg/kg oral, 2h, normotensive Wistar rats) it was 18.3%. Further, the “Blood pressure lowering rate, 3h” value in series [1] (setting [8]) turned out to be 0%; in series [1] (setting [9]), 13.0%; in series [4] (150 mg/kg oral, 3h, normotensive Wistar rats) it was 8.7%. Further, the “Blood pressure lowering rate, 4h” value in series [1] (setting [8]) turned out to be 0%; in series [1] (setting [9]), 0%; in series [4] (150 mg/kg oral, 4h, normotensive Wistar rats), 0%. The “selectivity of hypotensive action for hypertension (in words)” value in series [1] (conclusion from hypertensive vs normotensive rats) is “more selective for hypertension than 5-butylpicolinic acid”. Besides, the “hypotensive action (in words)” value in series [1] (spontaneous hypertensive rats, oral, vs 5-butylpicolinic acid or its mixture with dl-α-tocopherol) is listed as “strong hypotensive action on spontaneous hypertensive rats substantially equivalent to 5-butylpicolinicacid or a mixture of it with dl-α-tocopherol”. The median lethal dose (LD50) at 48 h in series [2] (ip, acute toxicity LD50, intraperitoneally administered, calculated for 5-butylpicolinic acid, intraperitoneal) is over 1210 mg/kg; in series [2] (ip, acute toxicity LD50, intraperitoneally administered, intraperitoneal, two days after administration) it was over 4000 mg/kg; in series [2] (po, acute toxicity LD50, orally administered, calculated for 5-butylpicolinic acid), over 1210 mg/kg; in series [2] (po, acute toxicity LD50, orally administered, oral, two days after administration) it was over 4000 mg/kg. The deaths result in series [3] was “no case of death was noted”. Moreover, the “blood pressure lowering effect (in words)” value in series [4] (normotensive rats, oral, vs 5-butylpicolinic acid) was “weaker both in strength and duration than that of 5-butylpicolinic acid”.
With `Cc1c(C)c2c(c(C)c1OC(=O)c1ccc(CCC(Br)CBr)cn1)CCC(C)(CCCC(C)CCCC(C)CCCC(C)C)O2` (racemic) [Example 4, dl-α-tocopheryl 5-(3,4-dibromobutyl)picolinate], the LD50 in series [5] (setting [10]) was over 4000 mg/kg. For the same compound, the inhibition in vivo at 10 µmol/kg in series [6] (setting [11]) came out at 53%.
Taken in the same sequence, the figures for `Cc1c(C)c2c(c(C)c1OC(=O)c1ccc(CCC(Cl)CCl)cn1)CCC(C)(CCCC(C)CCCC(C)CCCC(C)C)O2` (racemic) [Example 5, dl-α-tocopheryl 5-(3,4-dichlorobutyl)picolinate] were over 4000 mg/kg and 53%.
For the compound `Cc1c(C)c2c(c(C)c1OC(=O)c1ccc(CCCCBr)cn1)CCC(C)(CCCC(C)CCCC(C)CCCC(C)C)O2` (racemic) [Example 6, dl-α-tocopheryl 5-(4-bromobutyl)picolinate], the LD50 in series [5] (setting [10]) is over 4000 mg/kg. Besides, the inhibition in vivo at 10 µmol/kg in series [6] (setting [11]) was found to be 48%.
Taken in the same sequence, the figures for `Cc1c(C)c2c(c(C)c1OC(=O)c1ccc(CCCCCl)cn1)CCC(C)(CCCC(C)CCCC(C)CCCC(C)C)O2` (racemic) [Example 7, dl-α-tocopheryl 5-(4-chlorobutyl)picolinate] were over 4000 mg/kg and 50%.
The like results for `Cc1c(C)c2c(c(C)c1OC(=O)c1ccc(Cc3ccccc3)cn1)CCC(C)(CCCC(C)CCCC(C)CCCC(C)C)O2` (racemic) [Example 9, dl-α-tocopheryl 5-benzylpicolinate] were, in that order, over 4000 mg/kg and 41%.
Taken in the same sequence, the figures for `CCCCOc1ccc(C(=O)Oc2c(C)c(C)c3c(c2C)CCC(C)(CCCC(C)CCCC(C)CCCC(C)C)O3)nc1` (racemic) [Example 14, dl-α-tocopheryl 5-butyloxypicolinate] were over 4000 mg/kg and 36%.
For `Cc1c(C)c2c(c(C)c1OC(=O)c1ccc(OCCCCCl)cn1)CCC(C)(CCCC(C)CCCC(C)CCCC(C)C)O2` (racemic) [Example 16, dl-α-tocopheryl 5-(4-chlorobutyloxy)picolinate], the median lethal dose (LD50) in series [5] (setting [10]) is over 4000 mg/kg. For the same compound, the inhibition in vivo at 10 µmol/kg in series [6] (setting [11]) was 40%.
`Cc1c(C)c2c(c(C)c1OC(=O)c1ccc(Oc3ccc(Cl)cc3)cn1)CCC(C)(CCCC(C)CCCC(C)CCCC(C)C)O2` (racemic) [Example 17, dl-α-tocopheryl 5-(4-chlorophenyloxy)picolinate]: the LD50 in series [5] (setting [10]) was over 4000 mg/kg. Further, the inhibition in vivo at 10 µmol/kg in series [6] (setting [11]) amounted to 48%.
Regarding `CCCCSc1ccc(C(=O)Oc2c(C)c(C)c3c(c2C)CCC(C)(CCCC(C)CCCC(C)CCCC(C)C)O3)nc1` (racemic) [Example 18, dl-α-tocopheryl 5-butylthiopicolinate], in series [5] (setting [10]), the LD50 was over 4000 mg/kg. Moreover, the inhibition in vivo at 10 µmol/kg in series [6] (setting [11]) was found to be 39%.
`Cc1c(C)c2c(c(C)c1OC(=O)c1ccc(SCCCCl)cn1)CCC(C)(CCCC(C)CCCC(C)CCCC(C)C)O2` (racemic) [Example 23, dl-α-tocopheryl 5-(3-chloropropylthio)picolinate]: in series [5] (setting [10]), the LD50 was over 4000 mg/kg. Further, the inhibition in vivo at 10 µmol/kg in series [6] (setting [11]) turned out to be 43%.
With `CCCSc1ccc(C(=O)Oc2c(C)c(C)c3c(c2C)CCC(C)(CCCC(C)CCCC(C)CCCC(C)C)O3)nc1` (racemic) [Example 25, dl-α-tocopheryl 5-propylthiopicolate], the median lethal dose (LD50) in series [5] (setting [10]) was over 4000 mg/kg. Besides, in series [6] (setting [11]), the inhibition in vivo at 10 µmol/kg is 31%.
With `O=C(O)c1ccc(SCCCCl)cn1` [3-Chloropropyl], the LD50 in series [5] (setting [12]) is 179 mg/kg. In addition, in series [6] (setting [13]), the inhibition in vivo at 10 µmol/kg is 48%. The compound further yielded a concentration for half-maximal inhibition (IC50) in series [7] (Table 6) of 550 nM.
With `O=C(O)c1ccc(CCC(Br)CBr)cn1` (stereo not drawn) [5-(3,4-dibromobutyl)picolinic acid, reference compound], in series [5] (setting [14]), the median lethal dose (LD50) came out at 110 mg/kg. Moreover, the inhibition in vivo at 10 µmol/kg in series [6] (setting [13]) was 50%.
In series [7] (Table 6), `C=CCSc1ccc(C(=O)O)nc1` [Allyl] registered a half-maximal inhibitory concentration (IC50) of 550 nM. That is a sub-micromolar value.
Same read-out and setting: for `O=C(O)c1ccc(SCc2ccccc2)cn1` [Benzyl] the value was 280 nM; for `CSc1ccc(C(=O)O)nc1` [Methyl], 7500 nM.
For `CCCCSc1ccc(C(=O)O)nc1` [Referential Example 1, 5-n-butylthiopicolinic acid], the LD50 in series [5] (setting [14]) was determined as 143 mg/kg. Further, the inhibition in vivo at 10 µmol/kg in series [6] (setting [13]) was found to be 36%. Also, the 50% inhibitory concentration (IC50) in series [7] (Referential Example 1) was 510 nM.
In series [7] (Table 6), `CC(C)CCSc1ccc(C(=O)O)nc1` [i-Pentyl] yielded a half-maximal inhibitory concentration (IC50) of 210 nM.
On the same count and under the same terms, for `CCCCCCCCSc1ccc(C(=O)O)nc1` [n-Octyl] the value was 23000 nM.
As to `CCCSc1ccc(C(=O)O)nc1` [n-Propyl, propylthiopicolinic acid], the LD50 in series [5] (setting [12]) was determined as 167 mg/kg. In addition, the inhibition in vivo at 10 µmol/kg in series [6] (setting [13]) came to 33%. Moreover, in series [7] (Table 6), the 50% inhibitory concentration (IC50) was determined as 700 nM.
For the compound `O=C(O)c1ccc(CCCCBr)cn1` [reference compound], the 50% lethal dose (LD50) in series [5] (setting [12]) was found to be 46 mg/kg. Moreover, the inhibition in vivo at 10 µmol/kg in series [6] (setting [13]) was determined as 49%.
Taken in the same sequence, the figures for `CCCCOc1ccc(C(=O)O)nc1` [reference compound] were 134 mg/kg and 31%.
The like results for `O=C(O)c1ccc(CCC(Cl)CCl)cn1` (stereo not drawn) [reference compound] were, in that order, 41 mg/kg and 53%.
Consider `O=C(O)c1ccc(CCCCCl)cn1` [reference compound], for which, in series [5] (setting [12]), the LD50 came to 44 mg/kg. In addition, the inhibition in vivo at 10 µmol/kg in series [6] (setting [13]) is 46%.
Taken in the same sequence, the figures for `O=C(O)c1ccc(OCCCCCl)cn1` [reference compound] were 172 mg/kg and 43%.
As to `O=C(O)c1ccc(Cc2ccccc2)cn1` [reference compound], the LD50 in series [5] (setting [12]) is 135 mg/kg. The inhibition in vivo at 10 µmol/kg in series [6] (setting [13]) came to 39%.
With `O=C(O)c1ccc(Oc2ccc(Cl)cc2)cn1` [reference compound], the median lethal dose (LD50) in series [5] (setting [12]) was 123 mg/kg. Further, the inhibition in vivo at 10 µmol/kg in series [6] (setting [13]) was determined as 56%.
